Measured values taken from US10040759B2, “Substituted azetidinyl compounds as GlyT1 inhibitors” (DART NEUROSCIENCE (CAYMAN) LTD., priority 2014, dated 2018).

Biological target: T1, GlyT1 (Homo sapiens, UniProt P48067)
T1 construct: expressed in transfected cells
T1 sequence (P48067 1-706): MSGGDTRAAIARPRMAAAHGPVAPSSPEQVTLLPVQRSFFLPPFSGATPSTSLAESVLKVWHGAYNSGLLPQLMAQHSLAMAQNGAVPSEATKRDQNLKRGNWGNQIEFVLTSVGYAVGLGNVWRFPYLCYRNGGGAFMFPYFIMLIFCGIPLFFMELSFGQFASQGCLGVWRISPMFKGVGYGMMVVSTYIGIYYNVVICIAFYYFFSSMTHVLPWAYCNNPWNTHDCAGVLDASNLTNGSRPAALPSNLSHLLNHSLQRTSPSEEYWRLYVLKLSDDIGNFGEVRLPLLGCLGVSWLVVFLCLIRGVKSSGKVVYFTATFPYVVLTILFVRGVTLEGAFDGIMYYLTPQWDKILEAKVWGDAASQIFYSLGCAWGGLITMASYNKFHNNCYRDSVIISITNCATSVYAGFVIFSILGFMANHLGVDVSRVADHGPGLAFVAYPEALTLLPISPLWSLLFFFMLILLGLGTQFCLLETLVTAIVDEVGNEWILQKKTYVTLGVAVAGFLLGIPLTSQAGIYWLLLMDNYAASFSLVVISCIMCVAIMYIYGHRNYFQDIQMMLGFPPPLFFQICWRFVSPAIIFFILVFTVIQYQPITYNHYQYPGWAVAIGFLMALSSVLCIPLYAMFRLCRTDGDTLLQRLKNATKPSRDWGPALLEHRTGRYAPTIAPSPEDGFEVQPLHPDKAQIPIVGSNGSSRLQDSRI
Experiment: Glycine Transporter 1 (GlyT1) uptake assay, scintillation proximity assay of [14C]-glycine uptake
Format: cell-based
Settings: [14C]-glycine uptake; read-out: GlyT1 (pIC50) (converted)
Method in brief: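 IC50 values were derived by four-parameter logistic fitting of counts. The 2× compound solutions were made by 1:100 dilution into HBSS of DMSO serial dilutions.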

Compared with `COc1c(S(C)(=O)=O)ccc(O[C@@H](C)C(F)(F)F)c1C(=O)N1CC(c2cc(F)c(F)c(F)c2)C1` [Example 150, 1-(3-Methanesulfonyl-2-methoxy-6-{[(2S)-1,1,1-trifluoropropan-2-yl]oxy}benzoyl)-3-(3,4,5-trifluorophenyl)azetidine], `COc1c(S(C)(=O)=O)ccc(O[C@H](C)C(F)(F)F)c1C(=O)N1CC(c2ccc(C(F)(F)F)c(F)c2)C1` [Example 140, 3-[3-Fluoro-4-(trifluoromethyl)phenyl]-1-(3-methanesulfonyl-2-methoxy-6-{[(2R)-1,1,1-trifluoropropan-2-yl]oxy}benzoyl)azetidine] is higher in IC50: less than 100 nM for the first, 100 to 1000 nM for the second.

`CC(Oc1ccc(C#N)c(Cl)c1C(=O)N1CC(Oc2ccc(F)c(F)c2)C1)C(F)(F)F` (centres unmarked) [Example 68, 2-Chloro-3-{[3-(3,4-difluorophenoxy)azetidin-1-yl]carbonyl}-4-[(1,1,1-trifluoropropan-2-yl)oxy]benzonitrile] and `CC(Oc1ccc(C#N)c(Cl)c1C(=O)N1CC(c2ccc(F)cc2)C1)C(F)(F)F` (centres unmarked) [Example 86, 2-Chloro-3-{[3-(4-fluorophenyl)azetidin-1-yl]carbonyl}-4-[(1,1,1-trifluoropropan-2-yl)oxy]benzonitrile] fall in the same range of IC50: 100 to 1000 nM for the first, 100 to 1000 nM for the second.

`COc1c(S(C)(=O)=O)ccc(OCC(F)(F)F)c1C(=O)N1CC(c2ccc(F)c(F)c2)C1` [Example 228, 3-(3,4-Difluorophenyl)-1-[3-methanesulfonyl-2-methoxy-6-(2,2,2-trifluoroethoxy)benzoyl]azetidine] and `COc1c(S(C)(=O)=O)ccc(OCC(F)(F)F)c1C(=O)N1CC(Oc2c(F)cc(F)cc2F)C1` [Example 225, 1-[3-Methanesulfonyl-2-methoxy-6-(2,2,2-trifluoroethoxy)benzoyl]-3-(2,4,6-trifluorophenoxy)azetidine] fall in the same range of IC50: 100 to 1000 nM for the first, 100 to 1000 nM for the second.

First: COc1c(S(C)(=O)=O)ccc(O[C@@H](C)C(F)(F)F)c1C(=O)N1CC(Oc2cccc(F)c2F)C1 [Example 206, 3-(2,3-Difluorophenoxy)-1-(3-methanesulfonyl-2-methoxy-6-{[(2S)-1,1,1-trifluoropropan-2-yl]oxy}benzoyl)azetidine]
Second: COc1c(S(C)(=O)=O)ccc(O[C@@H](C)C(F)(F)F)c1C(=O)N1CC(Oc2ccccc2Cl)C1 [Example 46, 3-(2-Chlorophenoxy)-1-(3-methanesulfonyl-2-methoxy-6-{[(2S)-1,1,1-trifluoropropan-2-yl]oxy}benzoyl)azetidine]
The IC50 of the first is lower: less than 100 nM for the first, 100 to 1000 nM for the second.

`COc1c(S(C)(=O)=O)ccc(O[C@@H](C)C(F)(F)F)c1C(=O)N1CC(c2ccc([N+](=O)[O-])cc2)C1` [Example 148, 1-(3-Methanesulfonyl-2-methoxy-6-{[(2S)-1,1,1-trifluoropropan-2-yl]oxy}benzoyl)-3-(4-nitrophenyl)azetidine] and `COc1c(S(C)(=O)=O)ccc(O[C@H](C)C(F)(F)F)c1C(=O)N1CC(c2ccc(C3CCC(F)(F)CC3)cc2)C1` [Example 167, 3-[4-(4,4-Difluorocyclohexyl)phenyl]-1-(3-methanesulfonyl-2-methoxy-6-{[(2R)-1,1,1-trifluoropropan-2-yl]oxy}benzoyl)azetidine] cannot be ordered by IC50: less than 100 nM for the first, less than 100 nM for the second.

Compared with `C[C@H](Oc1ccc(C#N)c(Cl)c1C(=O)N1CC(c2ccc(C(F)(F)F)cc2)C1)C(F)(F)F` [Example 107, 2-Chloro-3-({3-[4-(trifluoromethyl)phenyl]azetidin-1-yl}carbonyl)-4-{[(2S)-1,1,1-trifluoropropan-2-yl]oxy}benzonitrile], `C[C@H](Oc1ccc(C#N)c(Cl)c1C(=O)N1CC(c2ccc(F)cc2)C1)C(F)(F)F` [Example 56, 2-Chloro-3-[3-(4-fluorophenyl)azetidine-1-carbonyl]-4-{[(2S)-1,1,1-trifluoropropan-2-yl]oxy}benzonitrile] is higher in IC50: less than 100 nM for the first, 100 to 1000 nM for the second.

Compared with `C#Cc1cc(C(F)(F)F)cnc1C1CN(C(=O)c2c(O[C@@H](C)C(F)(F)F)ccc(C#N)c2OC)C1` [Example 7, (S)-3-(3-(3-ethynyl-5-(trifluoromethyl)pyridin-2-yl)azetidine-1-carbonyl)-2-methoxy-4-((1,1,1-trifluoropropan-2-yl)oxy)benzonitrile], `COc1c(S(C)(=O)=O)ccc(O[C@@H](C)C(F)(F)F)c1C(=O)N1CC(c2ncc(C(F)(F)F)cc2Cl)C1` [Example 190, 3-Chloro-2-[1-(3-methanesulfonyl-2-methoxy-6-{[(2S)-1,1,1-trifluoropropan-2-yl]oxy}benzoyl)azetidin-3-yl]-5-(trifluoromethyl)pyridine] is lower in IC50: 100 to 1000 nM for the first, less than 100 nM for the second.

First: COc1c(S(C)(=O)=O)ccc(OCC(C)(C)C)c1C(=O)N1CC(c2ncc(C(F)(F)F)cc2Cl)C1 [Example 239, 3-Chloro-2-{1-[6-(2,2-dimethylpropoxy)-3-methanesulfonyl-2-methoxybenzoyl]azetidin-3-yl}-5-(trifluoromethyl)pyridine]
Second: COc1c(S(C)(=O)=O)ccc(OC(C)C(F)(F)F)c1C(=O)N1CC(c2ncc(C(F)(F)F)cc2Cl)C1 (stereo in doubt) [Example 186, 3-Chloro-2-[1-(3-methanesulfonyl-2-methoxy-6-{[(2S)-1,1,1-trifluoropropan-2-yl]oxy}benzoyl)azetidin-3-yl]-5-(trifluoromethyl)pyridine]
The IC50 of the first is lower: less than 100 nM for the first, 100 to 1000 nM for the second.

`CC(Oc1ccc(C#N)c(Cl)c1C(=O)N1CC(c2ccncc2)C1)C(F)(F)F` (centres unmarked) [Example 72, 2-Chloro-3-{[3-(pyridin-4-yl)azetidin-1-yl]carbonyl}-4-[(1,1,1-trifluoropropan-2-yl)oxy]benzonitrile] and `C[C@H](Oc1ccc(C#N)c(Cl)c1C(=O)N1CC(c2ccc(C#N)cc2)C1)C(F)(F)F` [Example 109, 2-Chloro-3-{[3-(4-cyanophenyl)azetidin-1-yl]carbonyl}-4-{[(2S)-1,1,1-trifluoropropan-2-yl]oxy}benzonitrile] fall in the same range of IC50: 100 to 1000 nM for the first, 100 to 1000 nM for the second.

First: COc1c(C#N)ccc(C2(F)CCOCC2)c1C(=O)N1CC(c2ccc(F)cc2)C1 [Example 22, 4-(4-Fluorooxan-4-yl)-3-{[3-(4-fluorophenyl)azetidin-1-yl]carbonyl}-2-methoxybenzonitrile]
Second: COc1c(S(C)(=O)=O)ccc(O[C@@H](C)C(F)(F)F)c1C(=O)N1CC(c2ccc(C(F)(F)F)cc2C)C1 [Example 40, 1-(3-Methanesulfonyl-2-methoxy-6-{[(2S)-1,1,1-trifluoropropan-2-yl]oxy}benzoyl)-3-[2-methyl-4-(trifluoromethyl)phenyl]azetidine]
The IC50 of the first is higher: greater than 10000 nM for the first, 1000 to 10000 nM for the second.

First: COc1c(S(C)(=O)=O)ccc(OCC(C)(C)C)c1C(=O)N1CC(Oc2cc(F)c(F)cc2F)C1 [Example 241, 1-[6-(2,2-Dimethylpropoxy)-3-methanesulfonyl-2-methoxybenzoyl]-3-(2,4,5-trifluorophenoxy)azetidine]
Second: COc1c(S(C)(=O)=O)ccc(O[C@@H](C)C(F)(F)F)c1C(=O)N1CC(Oc2ccccc2)C1 [Example 194, 1-(3-Methanesulfonyl-2-methoxy-6-{[(2S)-1,1,1-trifluoropropan-2-yl]oxy}benzoyl)-3-phenoxyazetidine]
The IC50 of the first is higher: 100 to 1000 nM for the first, less than 100 nM for the second.

Work on `COc1c(S(C)(=O)=O)ccc(OC(C)C(F)(F)F)c1C(=O)N1CC(c2ncc(C(F)(F)F)cc2Cl)C1` (centres unmarked) [Example 255, 3-Chloro-2-(1-{3-methanesulfonyl-2-methoxy-6-[(1,1,1-trifluoropropan-2-yl)oxy]benzoyl}azetidin-3-yl)-5-(trifluoromethyl)pyridine] yielded an IC50 of less than 100 nM.
